Test results from patent US20070149435A1, “Cleansing composition including microencapsulated delivery vehicles” (Kimberly-Clark Worldwide, Inc., priority 2005, published 2007).
Where two headings read alike, the source gives them in different places.

Key:
[1] = system: Staphylococcus aureus; experiment: Biocidal efficacy of magnesium chloride in combination with PHMB, total plate count; type: cell-based; details: 15-minute contact time
Experimental: A 1.5-milliliter tube was prepared using magnesium chloride in water.
Two control samples were also prepared. One control sample was filled with 0.850 milliliters magnesium chloride. A second control sample was prepared by introducing 0.850 milliliters sterile water.
The tubes were then vortexed until an increase in temperature was observed.
0.05 milliliters of 1×10^7 CFU/milliliter culture of Staphylococcus aureus was added to each tube. After a 15-minute contact time, 0.1 milliliters of each tube was transferred into 0.9 milliliters letheen broth. To the broth, 10 milligrams/milliliter sodium thiosulfate was also added. The tubes were again vortexed. After vortexing, 0.1 milliliters of each tube was plated on Tryptic soy agar plates. The plates were inverted and incubated at 37° C. for 24 hours. An inoculum control plate was also plated to determine the concentration of the inoculum
After 24 hours, the plates were evaluated using a total plate count to determine the biocidal efficacy of each sample.

[2] = system: Methicillin-resistant Staphylococcus aureus; details: 0.005% PHMB, 10-minute contact time, 5% bovine serum albumin soil, n = 2
Experimental: This Example utilized 1.5-milliliter tubes containing a 1-milliliter blend of phosphate-buffered saline (pH 7.2) and 5% (w/v) bovine serum albumin soil. The tubes were placed in electric heat blocks set for 22° C., 30° C., 40° C. and 50° C., respectively. The tubes remained in the electric heat blocks for approximately 10 minutes.
After 10 minutes, 0.005% (by weight) active polyhexamehtylene biguanide (PHMB) (commercially available as Cosmocil® CQ from Arch Biocides, Inc., United Kingdom) was added to two tubes at each temperature level. Duplicate tubes without PHMB at each temperature were also made.
The tubes were then vortexed and Methicillin-resistant Staphylococcus aureus (approximately 1×10^5 colony forming units (CFU)) was then added to each tube. All of the tubes were then placed back into the heat blocks at their respective temperatures.
Following a 10-minute contact time, 0.1 milliliters of each sample was transferred to 0.9 milliliters letheen broth to neutralize the PHMB activity. The letheen samples were then plated in duplicate on Tryptic Soy agar plates using a WASP2 spiral plater (commercially available from Don Whitley Scientific, Ltd., Yorkshire, United Kingdom). The plates were inverted and incubated at 37±2° C. for 48 hours.
After 48 hours, the plates were evaluated using a total plate count to determine the biocidal efficacy of each sample.

**Q.** With polyhexamethylene biguanide [PHMB] as the molecule, how does the LOG10 recovered ([1]; PHMB 0.00025%, magnesium chloride 0%) read?
**A.** 4.8

**Q.** And the “Total CFU Recovered MRSA” value ([2]; 22° C.)?
**A.** 3.5

**Q.** And the “Total CFU Recovered MRSA” value ([2]; 30° C.)?
**A.** 2.9

**Q.** And the “Total CFU Recovered MRSA” value ([2]; 40° C.)?
**A.** 2.1

**Q.** What about the “Total CFU Recovered MRSA” value ([2]; 50° C.) of the same molecule?
**A.** <2

**Q.** For `[Cl-].[Cl-].[Mg+2]` [Magnesium Chloride, magnesium chloride], which LOG10 recovered ([1]; PHMB 0%, magnesium chloride 50%) is on record?
**A.** 1.9
